Reference: patent publication US9145351B2, “Azole derivatives, methods for producing the same, intermediate thereof, agro-horticultural agents” (KUREHA CORPORATION, priority 2009, dated 2015)
Read-outs that look alike come from different tables or passages of the source.

Experiments:
[1] = tested on: Fusarium graminearum; experiment: whole plant or invertebrate; assay type: in vivo; conditions: in Triticum aestivum, 168 h, read-out: Protective value
[2] = tested on: Ustilago nuda; experiment: Plate medium fungicidal assay, barley loose smut U.n (Experimental Example 5); assay type: cell-based; conditions: Ustilago nuda
How it was run: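 Compounds in DMSO were mixed into molten PDA to give plates at 50 mg/L and 5 mg/L, then inoculated with a 4 mm mycelial plug. Colony diameter was compared with untreated plates as % inhibition = 100(dc−dt)/dc, scored on a 5-grade scale.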

[3] = tested on: Alternaria alternata; experiment: Plate medium fungicidal assay, Alternaria blotch A.m (Experimental Example 5); assay type: cell-based; conditions: Alternaria alternata
How it was run: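 Compound dissolved in DMSO and mixed into PDA plates at 50 mg/L and 5 mg/L; 4 mm mycelial plug inoculated. Colony diameter compared with untreated plates, % mycelial growth inhibition = 100(dc−dt)/dc, converted to one of 5 grades.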

[4] = tested on: Fusarium oxysporum; experiment: Plate medium fungicidal assay, cucumber fusarium wilt F.c (Experimental Example 5); assay type: cell-based; conditions: Fusarium oxysporum
How it was run: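 Compound in DMSO mixed into PDA agar to give plates at 50 mg/L and 5 mg/L, then inoculated with 4 mm mycelial plug. Colony diameter compared with untreated plate as % mycelial growth inhibition, R=100(dc−dt)/dc, then scored on a 5-grade scale.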

[5] = tested on: Penicillium sp.; experiment: Plate medium assay, industrial material deteriorating microorganism, Penicillium (Experimental Example 5); assay type: cell-based; conditions: treatment at 50 mg/l, PDA plate medium, read-out: growth inhibition grade
Method: (§1) In this Experimental Example, the fungicidal effects of the inventive compounds on various phytopathogenic fungi for plants and hazardous microorganism for industrial materials were examined by the methods described below. Each inventive compound was dissolved in 2 ml of dimethyl sulfoxide. 0.6 ml of this solution was added to 60 nil of a PDA medium (potato dextrose agar medium) at about 60 degrees C., which was mixed thoroughly in a 100-ml conical flask, and poured into a dish, where it was solidified, thereby obtaining a plate medium containing the inventive compound at 50 mg/L and 5 mg/L. On the other hand, a subject microorganism previously cultured on a plate medium was cut out using a cork borer whose diameter was 4 mm, and inoculated to the test compound-containing plate medium described above. […] The growth degree of the microorganism on the test compound-containing plate medium thus observed was compared with the growth degree of the microorganism in the untreated group, and % mycelial growth inhibition was calculated by the following equation. R=100(dc-dt)/dc wherein R=% mycelial extension inhibition, dc=flora diameter in untreated plate, dt=flora diameter in treated plate. The results obtained as described above were evaluated as one of the 5 grades according to the following criteria.

[6] = tested on: Trichoderma sp.; experiment: Plate medium assay, industrial material deteriorating microorganism, Trichoderma (Experimental Example 5); assay type: cell-based; conditions: treatment at 50 mg/l, PDA plate medium, read-out: growth inhibition grade
Method: as §1

[7] = tested on: Phaeosphaeria nodorum; experiment: Plate medium fungicidal assay, wheat Septoria nodorum blotch P.n (Experimental Example 5); assay type: cell-based; conditions: Parastagonospora nodorum
How it was run: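 Compound in DMSO mixed into PDA plate medium at 50 mg/L and 5 mg/L; 4 mm mycelial plug of pre-cultured fungus inoculated onto plate. Colony diameter compared with untreated plate, % mycelial growth inhibition = 100(dc−dt)/dc, scored in 5 grades.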

[8] = tested on: Cladosporium sp.; experiment: Plate medium assay, industrial material deteriorating microorganism, Cladosporium (Experimental Example 5); assay type: cell-based; conditions: treatment at 50 mg/l, PDA plate medium, read-out: growth inhibition grade
Method: as §1

[9] = plate medium containing compound at 5 mg/L, read-out: Growth inhibition grade, U.n
[10] = plate medium containing compound at 50 mg/L, read-out: Growth inhibition grade, U.n
[11] = plate medium, 5 mg/L, read-out: growth inhibition grade U.n
[12] = plate medium, 50 mg/L, read-out: growth inhibition grade U.n
[13] = plate medium containing compound at 5 mg/L, read-out: Growth inhibition grade, A.m
[14] = plate medium containing compound at 50 mg/L, read-out: Growth inhibition grade, A.m
[15] = plate medium, 5 mg/L, read-out: growth inhibition grade A.m
[16] = plate medium, 50 mg/L, read-out: growth inhibition grade A.m
[17] = plate medium containing compound at 5 mg/L, read-out: Growth inhibition grade, F.c
[18] = plate medium containing compound at 50 mg/L, read-out: Growth inhibition grade, F.c
[19] = plate medium, 5 mg/L, read-out: growth inhibition grade F.c
[20] = plate medium, 50 mg/L, read-out: growth inhibition grade F.c
[21] = plate medium containing compound at 5 mg/L, read-out: Growth inhibition grade, P.n
[22] = plate medium containing compound at 50 mg/L, read-out: Growth inhibition grade, P.n
[23] = plate medium, 5 mg/L, read-out: growth inhibition grade P.n
[24] = plate medium, 50 mg/L, read-out: growth inhibition grade P.n

Compound	pest or weed control at 100 µg/mL [1] [%]	pest or weed control at 500 µg/mL [1] [%]	inhibition at 5 µg/mL [2, 9] [%]	inhibition at 50 µg/mL [2, 10] [%]	inhibition at 5 µg/mL [2, 11] [%]	inhibition at 50 µg/mL [2, 12] [%]	inhibition at 5 µg/mL [3, 13] [%]	inhibition at 50 µg/mL [3, 14] [%]	inhibition at 5 µg/mL [3, 15] [%]	inhibition at 50 µg/mL [3, 16] [%]	inhibition at 5 µg/mL [4, 17] [%]	inhibition at 50 µg/mL [4, 18] [%]	inhibition at 5 µg/mL [4, 19] [%]	inhibition at 50 µg/mL [4, 20] [%]	inhibition at 50 µg/mL [5] [%]	inhibition at 50 µg/mL [6] [%]	inhibition at 5 µg/mL [7, 21] [%]	inhibition at 50 µg/mL [7, 22] [%]	inhibition at 5 µg/mL [7, 23] [%]	inhibition at 50 µg/mL [8] [%]	also measured
C[C@]1(CCl)CC[C@@H](Cc2ccc(F)cc2)[C@]1(O)Cn1cncn1 (racemic) [Compound I-77, (1RS,2SR,5SR)-2-chloromethyl-5-(4-fluorobenzyl)-2-methyl-1-(1H-1,2,4-triazol-1-ylmethyl)cyclopentanol]	≥ 80	≥ 90	> 80	> 80	> 80	> 80	> 80	> 80	> 80	> 80	> 80	> 80	> 80	> 80	60 to 80	60 to 80	> 80	> 80	> 80	60 to 80	inhibition at 50 µg/mL [7, 24]: > 80%
C[C@]1(CBr)CC[C@@H](Cc2ccc(Cl)cc2)[C@]1(O)Cn1cncn1 (racemic) [Compound I-25, (1RS,2SR,5SR)-2-bromomethyl-5-(4-chlorobenzyl)-2-methyl-1-(1H-1,2,4-triazol-1-ylmethyl)cyclopentanol]	≥ 80	≥ 90	40 to 60	> 80			60 to 80	> 80			> 80	> 80			60 to 80	60 to 80	60 to 80	> 80		60 to 80	
C[C@]1(CCl)CC[C@@H](Cc2ccccc2)[C@]1(O)Cn1cncn1 (racemic) [Compound I-73, (1RS,2SR,5SR)-2-chloromethyl-5-benzyl-2-methyl-1-(1H-1,2,4-triazol-1-ylmethyl)cyclopentanol]	≥ 80	≥ 90	> 80	> 80	> 80	> 80	> 80	> 80	> 80	> 80	> 80	> 80	> 80	> 80	60 to 80	60 to 80	> 80	> 80	> 80	60 to 80	inhibition at 50 µg/mL [7, 24]: > 80%
O[C@]1(Cn2cncn2)[C@H](Cc2ccc(Cl)cc2)CC[C@@H]1C(F)(F)F (racemic) [Compound I-65, (1RS,2SR,5SR)-5-(4-chlorobenzyl)-2-trifluoromethyl-1-(1H-1,2,4-triazol-1-ylmethyl)cyclopentanol]		≥ 90	40 to 60	> 80			40 to 60	> 80			40 to 60	> 80			60 to 80	60 to 80	60 to 80	> 80		60 to 80	
O[C@]1(Cn2cncn2)[C@@H](Cc2ccc(Cl)cc2)CC[C@@H]1C(F)(F)F (racemic) [Compound I-365, (1RS,2SR,5RS)-5-(4-chlorobenzyl)-2-trifluoromethyl-1-(1H-1,2,4-triazol-1-ylmethyl)cyclopentanol]		≥ 90			20 to 40	> 80			20 to 40	> 80			20 to 40	> 80	60 to 80	60 to 80			40 to 60	60 to 80	inhibition at 50 µg/mL [7, 24]: > 80%
CC[C@]1(CCl)CC[C@@H](Cc2ccc(Cl)cc2)[C@]1(O)Cn1cncn1 (racemic) [Compound I-36, (1RS,2SR,5SR)-5-(4-chlorobenzyl)-2-chloromethyl-2-ethyl-1-(1H-1,2,4-triazol-1-ylmethyl)cyclopentanol]	≥ 80	≥ 90	60 to 80	> 80			> 80	> 80			> 80	> 80			60 to 80	60 to 80	> 80	> 80		60 to 80	
CC(Cl)=C[C@@]1(C)CC[C@@H](Cc2ccc(Cl)cc2)[C@]1(O)Cn1cncn1 (racemic) [Compound I-15, (1RS,2RS,5SR)-5-(4-chlorobenzyl)-2-(2-chloropropenyl)-2-methyl-1-(1H-1,2,4-triazol-1-ylmethyl)cyclopentanol]		≥ 90	> 80	> 80			> 80	> 80			> 80	> 80			60 to 80	60 to 80	> 80	> 80		60 to 80	
C[C@@]1(CCCl)CC[C@@H](Cc2ccc(Cl)cc2)[C@]1(O)Cn1cncn1 (racemic) [Compound I-104, (1RS,2SR,5SR)-5-(4-chlorobenzyl)-2-(2-chloroethyl)-2-methyl-1-(1H-1,2,4-triazol-1-ylmethyl)cyclopentanol]	≥ 80	≥ 90			> 80	> 80			> 80	> 80			> 80	> 80	60 to 80	60 to 80			> 80	60 to 80	inhibition at 50 µg/mL [7, 24]: > 80%
